PubChem BioAssay (NCI)
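Interpolation was linear, between the two tested concentrations surrounding the appropriate level; five concentrations were tested over 48 hours in 96-well plates. Here, GI50 denotes the concentration required for 50% inhibition of growth. At the TGI there is no net growth.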

Assays:
Assay in all cases: NCI tumour cell line growth inhibition, 48 h
786-0 renal = tested on: 786-0 renal
A498 renal = tested on: A498 renal
A549 NSCLC = tested on: A549 NSCLC
ACHN renal = tested on: ACHN renal
BT-549 breast = tested on: BT-549 breast
CAKI-1 renal = tested on: CAKI-1 renal
CCRF-CEM leukemia = tested on: CCRF-CEM leukemia
COLO 205 colon = tested on: COLO 205 colon
DU-145 prostate = tested on: DU-145 prostate
EKVX NSCLC = tested on: EKVX NSCLC
HCC-2998 colon = tested on: HCC-2998 colon
HCT-116 colon = tested on: HCT-116 colon
HCT-15 colon = tested on: HCT-15 colon
HOP-62 NSCLC = tested on: HOP-62 NSCLC
HOP-92 NSCLC = tested on: HOP-92 NSCLC
HS 578T breast = tested on: HS 578T breast
HT29 colon = tested on: HT29 colon
IGROV1 ovarian = tested on: IGROV1 ovarian
K-562 leukemia = tested on: K-562 leukemia
KM12 colon = tested on: KM12 colon
LOX IMVI melanoma = tested on: LOX IMVI melanoma
M14 melanoma = tested on: M14 melanoma
MALME-3M melanoma = tested on: MALME-3M melanoma
MCF7 breast = tested on: MCF7 breast
MDA-MB-231 breast = tested on: MDA-MB-231 breast
MDA-MB-435 = tested on: MDA-MB-435
MDA-MB-468 breast = tested on: MDA-MB-468 breast
MOLT-4 leukemia = tested on: MOLT-4 leukemia
NCI-H226 lung = tested on: NCI-H226 lung
NCI-H23 lung = tested on: NCI-H23 lung
NCI-H460 lung = tested on: NCI-H460 lung
NCI-H522 lung = tested on: NCI-H522 lung
NCI/ADR-RES ovarian = tested on: NCI/ADR-RES ovarian
OVCAR-3 ovarian = tested on: OVCAR-3 ovarian
OVCAR-4 ovarian = tested on: OVCAR-4 ovarian
OVCAR-5 ovarian = tested on: OVCAR-5 ovarian
OVCAR-8 ovarian = tested on: OVCAR-8 ovarian
PC-3 prostate = tested on: PC-3 prostate
RPMI-8226 leukemia = tested on: RPMI-8226 leukemia
RXF 393 renal = tested on: RXF 393 renal
SF-268 CNS = tested on: SF-268 CNS
SF-295 CNS = tested on: SF-295 CNS
SF-539 CNS = tested on: SF-539 CNS
SK-MEL-2 melanoma = tested on: SK-MEL-2 melanoma
SK-MEL-28 melanoma = tested on: SK-MEL-28 melanoma
SK-MEL-5 melanoma = tested on: SK-MEL-5 melanoma
SK-OV-3 ovarian = tested on: SK-OV-3 ovarian
SN12C renal = tested on: SN12C renal
SNB-19 CNS = tested on: SNB-19 CNS
SW-620 colon = tested on: SW-620 colon
T-47D breast = tested on: T-47D breast
TK-10 renal = tested on: TK-10 renal
U251 CNS = tested on: U251 CNS
UACC-257 melanoma = tested on: UACC-257 melanoma
UACC-62 melanoma = tested on: UACC-62 melanoma
UO-31 renal = tested on: UO-31 renal

Cn1cc(-c2cc3nc(-c4cn(C)c5ncccc45)cc(N)n3n2)c2cc(Cl)ccc21
GI50 (786-0 renal): 1650 nM | TGI (786-0 renal): 3.03 µM | GI50 (A498 renal): 1900 nM | TGI (A498 renal): 5.37 µM | GI50 (A549 NSCLC): 2870 nM | TGI (A549 NSCLC): 12 µM | GI50 (ACHN renal): 1860 nM | TGI (ACHN renal): 3.53 µM | GI50 (BT-549 breast): 1590 nM | TGI (BT-549 breast): 3.09 µM | GI50 (CAKI-1 renal): 1850 nM | TGI (CAKI-1 renal): 4.38 µM | GI50 (CCRF-CEM leukemia): 2580 nM | TGI (CCRF-CEM leukemia): > 100 µM | GI50 (COLO 205 colon): 1770 nM | TGI (COLO 205 colon): 3.24 µM | GI50 (DU-145 prostate): 2540 nM | TGI (DU-145 prostate): 7.06 µM | GI50 (EKVX NSCLC): 1680 nM | TGI (EKVX NSCLC): 3.51 µM | GI50 (HCC-2998 colon): 1710 nM | TGI (HCC-2998 colon): 3.12 µM | GI50 (HCT-116 colon): 1620 nM | TGI (HCT-116 colon): 2980 nM | GI50 (HCT-15 colon): 1890 nM | TGI (HCT-15 colon): 4.36 µM | GI50 (HOP-62 NSCLC): 1960 nM | TGI (HOP-62 NSCLC): 4.21 µM | GI50 (HOP-92 NSCLC): 2160 nM | TGI (HOP-92 NSCLC): 4.14 µM | GI50 (HS 578T breast): 2100 nM | TGI (HS 578T breast): 5.25 µM | GI50 (HT29 colon): 1980 nM | TGI (HT29 colon): 4.1 µM | GI50 (IGROV1 ovarian): 1870 nM | TGI (IGROV1 ovarian): 3.49 µM | GI50 (K-562 leukemia): 1750 nM | TGI (K-562 leukemia): 4.41 µM | GI50 (KM12 colon): 2140 nM | TGI (KM12 colon): 4.76 µM | GI50 (LOX IMVI melanoma): 1770 nM | TGI (LOX IMVI melanoma): 3.16 µM | GI50 (M14 melanoma): 1670 nM | TGI (M14 melanoma): 3.14 µM | GI50 (MALME-3M melanoma): 1710 nM | TGI (MALME-3M melanoma): 3.15 µM | GI50 (MCF7 breast): 1830 nM | TGI (MCF7 breast): 4.31 µM | GI50 (MDA-MB-231 breast): 1760 nM | TGI (MDA-MB-231 breast): 3.23 µM | GI50 (MDA-MB-435): 1710 nM | TGI (MDA-MB-435): 3.29 µM | GI50 (MDA-MB-468 breast): 1500 nM | TGI (MDA-MB-468 breast): 2.86 µM | GI50 (MOLT-4 leukemia): 2020 nM | TGI (MOLT-4 leukemia): 5.11 µM | GI50 (NCI-H226 lung): 2020 nM | TGI (NCI-H226 lung): 4.64 µM | GI50 (NCI-H23 lung): 2320 nM | TGI (NCI-H23 lung): 6.47 µM | GI50 (NCI-H460 lung): 1880 nM | TGI (NCI-H460 lung): 3.67 µM | GI50 (NCI-H522 lung): 1770 nM | TGI (NCI-H522 lung): 3.33 µM | GI50 (NCI/ADR-RES ovarian): 2250 nM | TGI (NCI/ADR-RES ovarian): 5.3 µM | GI50 (OVCAR-3 ovarian): 1910 nM | TGI (OVCAR-3 ovarian): 3.59 µM | GI50 (OVCAR-4 ovarian): 2030 nM | TGI (OVCAR-4 ovarian): 4.74 µM | GI50 (OVCAR-5 ovarian): 1850 nM | TGI (OVCAR-5 ovarian): 4.48 µM | GI50 (OVCAR-8 ovarian): 2130 nM | TGI (OVCAR-8 ovarian): 4.82 µM | GI50 (PC-3 prostate): 2210 nM | TGI (PC-3 prostate): 7.6 µM | GI50 (RPMI-8226 leukemia): 2400 nM | TGI (RPMI-8226 leukemia): 6.4 µM | GI50 (RXF 393 renal): 1530 nM | TGI (RXF 393 renal): 2970 nM | GI50 (SF-268 CNS): 2130 nM | TGI (SF-268 CNS): 4.83 µM | GI50 (SF-295 CNS): 1770 nM | TGI (SF-295 CNS): 3.41 µM | GI50 (SF-539 CNS): 1730 nM | TGI (SF-539 CNS): 3.15 µM | GI50 (SK-MEL-2 melanoma): 1910 nM | TGI (SK-MEL-2 melanoma): 3.69 µM | GI50 (SK-MEL-28 melanoma): 1650 nM | TGI (SK-MEL-28 melanoma): 3.04 µM | GI50 (SK-MEL-5 melanoma): 1590 nM | TGI (SK-MEL-5 melanoma): 2960 nM | GI50 (SK-OV-3 ovarian): 2020 nM | TGI (SK-OV-3 ovarian): 4.08 µM | GI50 (SN12C renal): 1630 nM | TGI (SN12C renal): 3.09 µM | GI50 (SNB-19 CNS): 3.23 µM | TGI (SNB-19 CNS): 9.76 µM | GI50 (SW-620 colon): 1800 nM | TGI (SW-620 colon): 3.53 µM | GI50 (T-47D breast): 1800 nM | TGI (T-47D breast): 4.04 µM | GI50 (TK-10 renal): 1910 nM | TGI (TK-10 renal): 6.91 µM | GI50 (U251 CNS): 2180 nM | TGI (U251 CNS): 5.03 µM | GI50 (UACC-257 melanoma): 1720 nM | TGI (UACC-257 melanoma): 3.34 µM | GI50 (UACC-62 melanoma): 1600 nM | TGI (UACC-62 melanoma): 3.04 µM | GI50 (UO-31 renal): 1620 nM | TGI (UO-31 renal): 3.31 µM

C[C@@H]1C=C2C(=O)O[C@@H]3CC[C@H](C1)[C@]23O
GI50 (MDA-MB-468 breast): 1750 nM | TGI (MDA-MB-468 breast): 5.5 µM

COc1cc2nc(Nc3cccc(F)c3)nc(Nc3cc(C)[nH]n3)c2cc1OC
GI50 (MDA-MB-468 breast): 1630 nM | TGI (MDA-MB-468 breast): 3.23 µM

C=C(C)[C@@H]1CC[C@]2(C)[C@H](CC[C@@H]3[C@H]4[C@H]5OC[C@@]4(CCC5(C)C)CC[C@]32C)[C@@]1(C)CCCN
GI50 (MDA-MB-468 breast): 1580 nM | TGI (MDA-MB-468 breast): 3.05 µM

Cc1[nH]c(=O)[nH]c(=O)c1CO
GI50 (MDA-MB-468 breast): > 100000 nM | TGI (MDA-MB-468 breast): > 100 µM

CCn1cnc2c(Nc3cccc(Cl)c3)nc(N[C@@H]3CCCC[C@@H]3N)nc21
GI50 (MDA-MB-468 breast): 1860 nM | TGI (MDA-MB-468 breast): 4.36 µM

CC(=O)OC[C@]12CC[C@@H](C(=O)/C=C/c3cccnc3)[C@@H]1[C@H]1CC[C@@H]3[C@@]4(C)CC[C@H](OC(C)=O)C(C)(C)[C@@H]4CC[C@@]3(C)[C@]1(C)CC2
GI50 (MDA-MB-468 breast): 1770 nM | TGI (MDA-MB-468 breast): 4.41 µM

NS(=O)(=O)c1ccc(CCN=C=S)cc1
GI50 (MDA-MB-468 breast): 380 nM | TGI (MDA-MB-468 breast): 2.86 µM
